Experimental data taken from ChEMBL document CHEMBL5625242, “Discovery of brain permeable 2-Azabicyclo[2.2.2]octane sulfonamides as a novel class of presenilin-1 selective γ-secretase inhibitors” (Eur J Med Chem, 2023).

Columns and labels:
Type in all cases: cell-based
[1] = Inhibition of human PSEN1/APH1A expressed in MEF cells with Psen1/2 double knockout/Aph1ABC triple knockout by ELISA
[2] = Inhibition of human PSEN1/APH1B expressed in MEF cells with Psen1/2 double knockout/Aph1ABC triple knockout by ELISA
[3] = Inhibition of human PSEN2/APH1A expressed in MEF cells with Psen1/2 double knockout/Aph1ABC triple knockout by ELISA
[4] = Inhibition of human PSEN2/APH1B expressed in MEF cells with Psen1/2 double knockout/Aph1ABC triple knockout by ELISA
Homo sapiens [5] = species on record: Homo sapiens; experiment: Selectivity ratio of IC50 for human PSEN1/APH1A expressed in MEF cells with Psen1/2 double knockout/Aph1ABC triple knockout to IC50 for human PSEN1/APH1B expressed in MEF cells with Psen1/2 double knockout/Aph1ABC triple knockout
Homo sapiens [6] = species on record: Homo sapiens; experiment: Selectivity ratio of IC50 for human PSEN2/APH1A expressed in MEF cells with Psen1/2 double knockout/Aph1ABC triple knockout to IC50 for human PSEN1/APH1B expressed in MEF cells with Psen1/2 double knockout/Aph1ABC triple knockout
Homo sapiens [7] = species on record: Homo sapiens; experiment: Selectivity ratio of IC50 for human PSEN2/APH1B expressed in MEF cells with Psen1/2 double knockout/Aph1ABC triple knockout to IC50 for human PSEN1/APH1B expressed in MEF cells with Psen1/2 double knockout/Aph1ABC triple knockout

| SMILES | IC50 [1] [nM] | IC50 [2] [nM] | IC50 [3] [nM] | IC50 [4] [nM] | Ratio IC50 (Homo sapiens [5]) | Ratio IC50 (Homo sapiens [6]) | Ratio IC50 (Homo sapiens [7]) |
| --- | --- | --- | --- | --- | --- | --- | --- |
| O=C1C[C@@H]2CC[C@H]1[C@@H](c1cc(F)ccc1F)N2S(=O)(=O)c1ccc(Cl)s1 (racemic) | 7080 | 512 | > 10000 | > 10000 | 13 | – | – |
| N#Cc1ccc(S(=O)(=O)N2[C@H]3CC[C@H](C(=O)C3)[C@H]2c2ccc(C(F)(F)F)cc2)cc1 (racemic) | > 10000 | 1550 | > 10000 | > 10000 | > 40 | – | – |
| O=S(=O)(c1ccc(Cl)cc1)N1[C@H]2CC[C@H]([C@H](O)C2)[C@H]1c1ccc(C(F)(F)F)cc1 | – | – | – | – | – | 15 | 15 |
| O=C1C[C@@H]2CC[C@H]1[C@@H](c1cc(F)ccc1F)N2S(=O)(=O)c1ccc(Cl)cc1 (racemic) | 1020 | 426 | > 10000 | > 10000 | – | 25 | 25 |
| O=S(=O)(c1ccc(Cl)cc1)N1[C@@H]2CCC[C@H]1c1cn[nH]c1C2 | 47.2 | – | 272 | 380 | – | > 260 | > 260 |
| O=C1C[C@@H]2CC[C@H]1[C@@H](c1ccc(C(F)(F)F)cc1)N2S(=O)(=O)c1ccc(F)cc1 (racemic) | 1000 | 208 | > 10000 | > 10000 | – | – | – |
| O=C1C[C@@H]2CC[C@H]1[C@@H](c1ccccc1Cl)N2S(=O)(=O)c1ccc(Cl)cc1 (racemic) | 2630 | 389 | > 10000 | > 10000 | – | – | – |
| COCC(=O)Nc1ccc([C@@H]2[C@@H]3CC[C@@H](CC3=O)N2S(=O)(=O)c2ccc(Cl)cc2)cc1 (racemic) | > 10000 | 1440 | > 10000 | > 10000 | – | – | – |
| CCNC(=O)Nc1ccc([C@@H]2[C@@H]3CC[C@@H](CC3=O)N2S(=O)(=O)c2ccc(Cl)cc2)cc1 (racemic) | 3800 | 389 | 7000 | 8500 | – | – | – |
| Cc1ccc(S(=O)(=O)N2[C@H]3CC[C@@H]([C@H]2c2ccc(C#N)nc2)[C@@H](O)C3)cc1 (racemic) | 1100 | 158 | > 10000 | > 10000 | – | – | – |
| N#Cc1ccc([C@@H]2[C@@H]3CC[C@@H](CC3=O)N2S(=O)(=O)c2ccc(Cl)cc2)cc1 (racemic) | 891 | 234 | > 8000 | > 8000 | – | – | – |
| O=S(=O)(c1ccc(Cl)cc1)N1[C@H]2CC[C@H]([C@H](O)C2)[C@H]1c1cc(F)ccc1F (racemic) | 851 | 427 | 7760 | 7760 | – | – | – |
| O=C1C[C@@H]2CC[C@H]1[C@@H](c1ccc(Cl)cc1)N2S(=O)(=O)c1ccc(Cl)s1 (racemic) | 2240 | 281 | > 10000 | > 10000 | – | – | – |
| O=C1C[C@@H]2CC[C@H]1[C@@H](c1ccc(OC(F)(F)F)cc1)N2S(=O)(=O)c1ccc(Cl)cc1 (racemic) | 1620 | 190 | > 10000 | > 10000 | – | > 5 | > 5 |
| O=S(=O)(c1ccc(Cl)cc1)N1[C@H]2CC[C@H]([C@H](O)C2)[C@H]1c1ccccc1Cl (racemic) | 2240 | 426 | > 10000 | > 10000 | – | – | – |
| O=C1C[C@@H]2CC[C@H]1[C@@H](c1ccc(Cl)cc1)N2S(=O)(=O)c1ccc(Cl)cc1 (racemic) | 1350 | 182 | > 10000 | > 10000 | – | > 5 | > 5 |

Continued by falling IC50 [1], values first:

| IC50 [1] [nM] | IC50 [2] [nM] | IC50 [3] [nM] | IC50 [4] [nM] | SMILES | Ratio IC50 (Homo sapiens [5]) | Ratio IC50 (Homo sapiens [6]) | Ratio IC50 (Homo sapiens [7]) |
| --- | --- | --- | --- | --- | --- | --- | --- |
| 794 | 195 | > 10000 | > 10000 | COc1ccc([C@@H]2[C@@H]3CC[C@@H](CC3=O)N2S(=O)(=O)c2ccc(Cl)cc2)cn1 (racemic) | – | > 5 | > 5 |
| 690 | 390 | > 10000 | > 10000 | O=C1C[C@@H]2CC[C@H]1[C@@H](c1ccc(C(F)(F)F)nc1)N2S(=O)(=O)c1ccc(Cl)cc1 (racemic) | – | > 11 | > 11 |
| 398 | 74 | > 10000 | > 10000 | O=S(=O)(c1ccc(Cl)s1)N1[C@H]2CC[C@@H]([C@H]1c1ccc(F)c(F)c1)[C@@H](O)C2 (racemic) | – | – | – |
| 380 | 62 | > 10000 | > 10000 | COc1ccc([C@@H]2[C@@H]3CC[C@@H](C[C@@H]3O)N2S(=O)(=O)c2ccc(Cl)cc2)cn1 (racemic) | – | – | – |
| 281 | 55 | > 5000 | > 5000 | Cc1ccc(S(=O)(=O)N2[C@H]3CC[C@H](C(=O)C3)[C@H]2c2ccc(C(F)(F)F)cc2)cc1 (racemic) | – | > 100 | > 100 |
| 199 | 58 | > 2000 | > 2000 | O=S(=O)(c1ccc(Cl)s1)N1[C@H]2CC[C@@H]([C@H]1c1ccc(Cl)cc1)[C@@H](O)C2 (racemic) | – | – | – |
| 190 | 29 | 288 | 912 | CCOC(=O)Nc1ccc([C@@H]2[C@@H]3CC[C@@H](C[C@@H]3O)N2S(=O)(=O)c2ccc(Cl)cc2)cc1 (racemic) | – | – | – |
| 151 | 37 | > 10000 | > 10000 | O=S(=O)(c1ccc(Cl)cc1)N1[C@H]2CC[C@@H]([C@H]1c1ccc(OC(F)(F)F)cc1)[C@@H](O)C2 (racemic) | – | – | – |
| 102 | 14 | 426 | 602 | O=S(=O)(c1ccc(Cl)cc1)N1[C@H]2CC[C@@H]([C@H]1c1ccccc1)[C@@H](O)C2 (racemic) | – | – | – |
| 72.4 | 26 | 513 | 851 | CC(=O)Nc1ccc([C@@H]2[C@@H]3CC[C@@H](C[C@@H]3O)N2S(=O)(=O)c2ccc(Cl)s2)cc1 (racemic) | – | – | – |
| 64 | 12 | 758 | 631 | N#Cc1ccc([C@@H]2[C@@H]3CC[C@@H](C[C@@H]3O)N2S(=O)(=O)c2ccc(Cl)cc2)cc1 (racemic) | – | – | – |
| 38.3 | 24.5 | 4110 | 1700 | O=C1NCCCC[C@H]1N(Cc1ccc(Br)cc1)S(=O)(=O)c1ccc(Cl)cc1 | – | > 60 | > 60 |
| 37 | 25 | 370 | 380 | O=S(=O)(c1ccc(Cl)cc1)N1[C@H]2CC[C@@H]([C@H]1c1cc(F)ccc1F)[C@@H](O)C2 (racemic) | – | 12 | 12 |
| 1.4 | 0.42 | 154 | 139 | O=S(=O)(N[C@H]1CC[C@@](c2cc(F)ccc2F)(S(=O)(=O)c2ccc(Cl)cc2)CC1)C(F)(F)F | – | > 300 | > 300 |
